{"source": "patent US4127526A", "about": "“Novel tetradecapeptides, intermediates therefor, and compositions and methods employing said tetradecapeptides” (priority 1977, dated 1978)", "origin": "cited, not measured here", "key": {"[1]": {"system": "brain opiate receptor sites"}, "[2]": {"details": "injected directly into the brain of the rat"}}}
{"substance": "H-Tyr-Gly-Gly-Phe-Met-OH [methionine enkephalin]", "values": [{"measurement": "activity in bioassays for opiate activity", "setting": "opiate activity", "value": "very active"}, {"measurement": "binding to partially purified brain opiate receptor sites", "setting": "[1]", "value": "binds stereo-specifically"}, {"measurement": "analgesic activity", "setting": "[2]", "value": "weak analgesic agent of short duration"}]}
